Here are results for 30 compounds from patent US20050032873A1, “3-Amino chroman and 2-amino tetralin derivatives” (Wyeth, priority 2003, published 2005).

Where a name gives a salt, the structure may show the parent alone.

For the compound `COc1cccc2c(CCCN(C3CCC3)C3COc4c(F)ccc(C(N)=O)c4C3)coc12` (stereo not drawn) (as salt: hydrochloride) [Compound 164, 3-{cyclobutyl[3-(7-methoxy-1-benzofuran-3-yl)propyl]amino}-8-fluorochromane-5-carboxamide], the melting point is 131 to 140 °C (dec.). The figure for `O=C(Nc1ccccc1)c1ccc(F)c2c1CC(N(CCCc1c[nH]c3ccc(F)cc13)C1CCC1)CO2` (stereo not drawn) (as salt: hydrochloride) [Compound 70, 3-{cyclobutyl[3-(5-fluoro-1H-indol-3-yl)propyl]amino}-8-fluoro-N-phenylchromane-5-carboxamide] is 136 °C (dec.).

For the compound `COc1ccc2[nH]cc(CCCN(CC3CC3)C3COc4c(F)ccc(C(N)=O)c4C3)c2c1` (stereo not drawn) (as salt: hydrochloride) [Compound 108, 3-{(cyclopropylmethyl)[3-(5-methoxy-1H-indol-3-yl)propyl]amino}-8-fluorochromane-5-carboxamide], the melting point is 148 to 154 °C (dec.). The figure for `COc1cccc2c1CC(N[C@H]1CC[C@@H](c3c[nH]c4ccc(F)cc43)CC1)CO2` (relative stereo) (as salt: hydrochloride) [Compound 181a, cis-N-[4-(5-fluoro-1H-indol-3-yl)cyclohexyl]-5-methoxychroman-3-amine] is 156.5 °C (dec.); for `CCCN(CCCc1c[nH]c2ccc(F)cc12)C1COc2c(C(N)=O)ccc(F)c2C1` (stereo not drawn) (as salt: hydrochloride) [Compound 120, 5-fluoro-3-[[3-(5-fluoro-1H-indol-3-yl)propyl](propyl)amino]chromane-8-carboxamide] it is 123 °C (dec.); for `CNC(=O)c1ccc(F)c2c1CC(NCCCCc1c[nH]c3ccc(F)cc13)CO2` (stereo not drawn) (as salt: hydrochloride) [Compound 92, 8-fluoro-3-{[4-(5-fluoro-1H-indol-3-yl)butyl]amino}-N-methylchromane-5-carboxamide] it is 130 °C (dec.). In the case of `COc1cccc2c1CC(N(CCCc1c[nH]c3ccc(F)cc13)CC1CC1)CO2` (stereo not drawn) (as salt: hydrochloride) [Compound 37, N-(cyclopropylmethyl)-N-[3-(5-fluoro-1H-indol-3-yl)propyl]-N-(5-methoxy-3,4-dihydro-2H-chromen-3-yl)amine] it was 114 °C (dec.); in that of `CCCN(CCCc1c[nH]c2ccc(Cl)cc12)C1COc2c(F)ccc(C(N)=O)c2C1` (stereo not drawn) (as salt: hydrochloride) [Compound 116, 3-[[3-(5-chloro-1H-indol-3-yl)propyl](propyl)amino]-8-fluorochromane-5-carboxamide], 148 to 154 °C (dec.). In the case of `NC(=O)c1ccc(F)c2c1OCC(N(CCCc1c[nH]c3ccc(F)cc13)C1CCC1)C2` (stereo not drawn) (as salt: hydrochloride) [Compound 122, 3-{cyclobutyl[3-(5-fluoro-1H-indol-3-yl)propyl]amino}-5-fluorochromane-8-carboxamide] it was 132 °C (dec.). On to `CCCCN(CCCc1coc2c(OC)cccc12)C1COc2c(F)ccc(C(N)=O)c2C1` (stereo not drawn) (as salt: hydrochloride) [Compound 166, 3-{butyl[3-(7-methoxy-1-benzofuran-3-yl)propyl]amino}-8-fluorochromane-5-carboxamide], for which the melting point is 110 to 117 °C (dec.).

Turning to `CNC(=O)c1ccc(F)c2c1C[C@@H](N(CCCCc1c[nH]c3ccc(F)cc13)C1CCC1)CO2` (as salt: hydrochloride) [Compound 145b, (3R)-3-{cyclobutyl[4-(5-fluoro-1H-indol-3-yl)butyl]amino}-8-fluoro-N-methylchromane-5-carboxamide], the melting point was 125 °C (dec.). On to `C[C@H](CCN(C1CCC1)[C@H]1COc2c(F)ccc(C(N)=O)c2C1)c1c[nH]c2ccc(F)cc12` (as salt: hydrochloride) [Compound 152a, (3R)-3-{cyclobutyl[(3R)-3-(5-fluoro-1H-indol-3-yl)butyl]amino}-8-fluorochromane-5-carboxamide], for which the melting point is 168 to 174 °C (dec.).

As to `NC(=O)c1ccc(F)c2c1CC(N(CCc1c[nH]c3ccc(F)cc13)CC1CC1)CO2` (stereo not drawn) (as salt: hydrochloride) [Compound 78, 3-{(cyclopropylmethyl)[2-(5-fluoro-1H-indol-3-yl)ethyl]amino}-8-fluorochromane-5-carboxamide], the melting point was 132 °C (dec.).

As for `COC(=O)c1ccc(F)c2c1CC(NCCCc1c[nH]c3ccc(F)cc13)CO2` (stereo not drawn) (as salt: hydrochloride) [Compound 10, Methyl 8-fluoro-3-{[3-(5-fluoro-1H-indol-3-yl)propyl]amino}chromane-5-carboxylate], the melting point was 219 °C (dec.).

In turn, `CCCN(CCCCc1coc2c(OC)cccc12)[C@H]1COc2c(F)ccc(C(N)=O)c2C1` (as salt: hydrochloride) [Compound 172, (3R)-8-fluoro-3-[[4-(7-methoxy-1-benzofuran-3-yl)butyl](propyl)amino]chromane-5-carboxamide] gave a melting point of 103 to 111 °C. In the case of `CC(C1CC1)N(CCCc1c[nH]c2ccc(F)cc12)C1COc2c(F)ccc(C(N)=O)c2C1` (stereo not drawn) (as salt: hydrochloride) [Compound 6, 3-{(1-cyclopropylethyl)[3-(5-fluoro-1H-indol-3-yl)propyl]amino}-8-fluorochromane-5-carboxamide] it was 124 °C (dec.); in that of `CCCN(CCCc1c[nH]c2ccc(F)cc12)C1COc2c(F)ccc(C(N)=O)c2C1` (single isomer, unassigned; (-)) (as salt: hydrochloride) [Compound 2a, (−)-8-fluoro-3-[[3-(5-fluoro-1H-indol-3-yl)propyl](propyl)amino]-3,4-dihydro-2H-chromene-5-carboxamide], 126 °C (dec.); in that of `CCCCN(CCCc1c[nH]c2ccc(F)cc12)C1COc2c(F)ccc(C(N)=O)c2C1` (stereo not drawn) (as salt: hydrochloride) [Compound 72, 3-{butyl[3-(5-fluoro-1H-indol-3-yl)propyl]amino}-8-fluorochromane-5-carboxamide], 126 °C (dec.).

As to `CCN(CCCCc1c[nH]c2ccc(F)cc12)C1COc2c(F)ccc(C(N)=O)c2C1` (stereo not drawn) (as salt: hydrochloride) [Compound 80, 3-{ethyl[4-(5-fluoro-1H-indol-3-yl)butyl]amino}-8-fluorochromane-5-carboxamide], the melting point was 110 °C (dec.).

As for `COc1cccc2c(CCCN(CC3CC3)C3COc4c(F)ccc(C(N)=O)c4C3)c[nH]c12` (stereo not drawn) (as salt: hydrochloride) [Compound 103, 3-{(cyclopropylmethyl)[3-(7-methoxy-1H-indol-3-yl)propyl]amino}-8-fluorochromane-5-carboxamide], the melting point is 152 to 158 °C (dec.). In the case of `N#Cc1ccc2[nH]cc(CCCN(C3CCC3)[C@@H]3COc4c(F)ccc(C(N)=O)c4C3)c2c1` (as salt: hydrochloride) [Compound 97a, (3S)-3-[[3-(5-cyano-1H-indol-3-yl)propyl](cyclobutyl)amino]-8-fluorochromane-5-carboxamide] it was 170 to 177 °C (dec.); in that of `COc1cccc2c1CC(N(CCCc1c[nH]c3ccc(F)cc13)C(C)C)CO2` (stereo not drawn) (as salt: hydrochloride) [Compound 40, N-[3-(5-fluoro-1H-indol-3-yl)propyl]-N-isopropyl-N-(5-methoxy-3,4-dihydro-2H-chromen-3-yl)amine], 105 °C (dec.); in that of `NC(=O)c1ccc(F)c2c1C[C@@H](N(CCCCc1c[nH]c3ccc(F)cc13)C1CCC1)CO2` (as salt: hydrochloride) [Compound 83a, (3R)-3-{cyclobutyl[4-(5-fluoro-1H-indol-3-yl)butyl]amino}-8-fluorochromane-5-carboxamide], 128 °C (dec.). `COc1cccc2c1CC(N(CCCc1c[nH]c3ccc(F)cc13)CC1CCC1)CO2` (stereo not drawn) (as salt: hydrochloride) [Compound 42, N-(cyclobutylmethyl)-N-[3-(5-fluoro-1H-indol-3-yl)propyl]-N-(5-methoxy-3,4-dihydro-2H-chromen-3-yl)amine]: the melting point is 115 °C (dec.). `COc1cccc2c(CCCCN(CC3CC3)C3COc4c(F)ccc(C(N)=O)c4C3)coc12` (stereo not drawn) (as salt: hydrochloride) [Compound 170, 3-{(cyclopropylmethyl)[4-(7-methoxy-1-benzofuran-3-yl)butyl]amino}-8-fluorochromane-5-carboxamide] had a melting point of 114 to 120 °C. Turning to `O=C(NC1CCCC1)c1ccc(F)c2c1CC(N(CCCc1c[nH]c3ccc(F)cc13)C1CCC1)CO2` (stereo not drawn) (as salt: hydrochloride) [Compound 66, 3-{cyclobutyl[3-(5-fluoro-1H-indol-3-yl)propyl]amino}-N-cyclopentyl-8-fluorochromane-5-carboxamide], the melting point is 133 °C (dec.). As to `CCN(CCCc1c[nH]c2c(OC)cccc12)C1COc2c(F)ccc(C(N)=O)c2C1` (stereo not drawn) (as salt: hydrochloride) [Compound 101, 3-{ethyl[3-(7-methoxy-1H-indol-3-yl)propyl]amino}-8-fluorochromane-5-carboxamide], the melting point was 148 to 153 °C (dec.). In the case of `COc1cccc2c(CCCCN(C3CCC3)C3COc4c(F)ccc(C(N)=O)c4C3)coc12` (stereo not drawn) (as salt: hydrochloride) [Compound 171, 3-{cyclobutyl[4-(7-methoxy-1-benzofuran-3-yl)butyl]amino}-8-fluorochromane-5-carboxamide], the melting point was 122 to 127 °C (dec.).

Consider `CNC(=O)c1ccc(F)c2c1CC(N(CCCc1c[nH]c3ccc(F)cc13)CC1CC1)CO2` (stereo not drawn) (as salt: hydrochloride) [Compound 91, 3-{(cyclopropylmethyl)[3-(5-fluoro-1H-indol-3-yl)propyl]amino}-8-fluoro-N-methylchromane-5-carboxamide], for which the melting point was 120 °C (dec.).

For the compound `NC(=O)c1ccc(F)c2c1OCC(N(CCCc1c[nH]c3c(F)cc(F)cc13)C1CCC1)C2` (stereo not drawn) (as salt: hydrochloride) [Compound 131, 3-{cyclobutyl[3-(5,7-difluoro-1H-indol-3-yl)propyl]amino}-5-fluorochromane-8-carboxamide], the melting point was 136 °C (dec.).
